Data as given in PubChem BioAssay AID248 (DTP/NCI, 2004).
“And” between values parts separate entries of the source, which are not always exact repeats. Identical values can stand only once. Inconclusive results and toxic doses are left out. Cut-off read from the data, not from the text of the source: active = T/C of 150% or more; inactive = T/C below 125%.

Tested on: L1210 leukemia ip in BDF1 mice, survival T/C
Assay: NCI In Vivo Anticancer Drug Screen. Data for tumor model L1210 Leukemia (intraperitoneal) in B6D2F1 (BDF1) mice
Conditions: endpoint: mean survival time, higher = longer survival
In short: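 Tumor cells were implanted, animals were treated, and survival was followed. The result divides the treated measurement by the vehicle-control measurement.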

[1] = dose: 100.0 mg/kg/injection, schedule: Q04DX002 (ip), vehicle: Klucel (hydroxypropylcellulose) (HPC)
[2] = dose: 200.0 mg/kg/injection, schedule: Q04DX002 (ip), vehicle: Klucel (hydroxypropylcellulose) (HPC)
[3] = dose: 400.0 mg/kg/injection, schedule: Q04DX002 (ip), vehicle: Klucel (hydroxypropylcellulose) (HPC)
[4] = dose: 100.0 mg/kg/injection, schedule: Q01DX001 (ip), vehicle: Klucel (hydroxypropylcellulose) (HPC)
[5] = dose: 200.0 mg/kg/injection, schedule: Q01DX001 (ip), vehicle: Klucel (hydroxypropylcellulose) (HPC)
[6] = dose: 100.0 mg/kg/injection, schedule: Q01DX001 (ip), vehicle: saline

Measured: T/C

CC(C)CC(NC(=O)C(C)NC(=O)OCc1ccccc1)C(=O)NC(CC(C)C)C(=O)NCC(=O)NC1CCC2(C)C(CCC3C2CCC2(C)C(NC(=O)CNC(=O)C(CC(C)C)NC(=O)C(CC(C)C)NC(=O)C(C)NC(=O)OCc4ccccc4)CCC32)C1 (stereo not drawn)
inactive: dose: 100.0 mg/kg/injection, schedule: Q01DX009 (sc), vehicle: steriod suspending solution 89 % of control | dose: 100.0 mg/kg/injection, schedule: Q04DX003 (sc), vehicle: steriod suspending solution 89 % of control | dose: 200.0 mg/kg/injection, schedule: Q01DX009 (sc), vehicle: steriod suspending solution 89 % of control | dose: 200.0 mg/kg/injection, schedule: Q04DX003 (sc), vehicle: steriod suspending solution 103 % of control | dose: 400.0 mg/kg/injection, schedule: Q01DX009 (sc), vehicle: steriod suspending solution 94 % of control | dose: 400.0 mg/kg/injection, schedule: Q04DX003 (sc), vehicle: steriod suspending solution 92 % of control

O=C(COc1ccc(Cl)c(Cl)c1)NCc1ccc[n+](Cc2ccc(S(=O)(=O)F)c(Cl)c2)c1
inactive: dose: 25.0 mg/kg/injection, schedule: Q04DX003 (ip), vehicle: saline 106 % of control | dose: 50.0 mg/kg/injection, schedule: Q04DX003 (ip), vehicle: saline 106 % of control | dose: 100.0 mg/kg/injection, schedule: Q04DX003 (ip), vehicle: saline 92 % of control and 98 % of control

CN(C)CCOC(=O)c1ccc(CBr)cc1
inactive: dose: 10.0 mg/kg/injection, schedule: Q01DX009 (ip), vehicle: saline 97 % of control | dose: 20.0 mg/kg/injection, schedule: Q01DX009 (ip), vehicle: saline 95 % of control | dose: 40.0 mg/kg/injection, schedule: Q01DX009 (ip), vehicle: saline 93 % of control | dose: 87.5 mg/kg/injection, schedule: Q01DX009 (ip), vehicle: saline 101 % of control

COC1OC(CBr)C(OS(C)(=O)=O)C(OC(=O)c2ccccc2)C1OC(=O)c1ccccc1 (stereo not drawn)
inactive: [1] 103 % of control | [2] 91 % of control | [3] 94 % of control

CCN1C(=O)/C(=C\C=C2\SCCN2CI)OC1=S
inactive: dose: 177.6 mg/kg/injection, schedule: Q01DX001 (ip), vehicle: other 98 % of control and 89 % of control | dose: 266.8 mg/kg/injection, schedule: Q01DX001 (ip), vehicle: other 96 % of control | dose: 400.0 mg/kg/injection, schedule: Q01DX001 (ip), vehicle: other 96 % of control and 89 % of control | dose: 600.0 mg/kg/injection, schedule: Q01DX001 (ip), vehicle: other 103 % of control and 87 % of control

O=[N+]([O-])c1ccc(C[n+]2ccccc2)cc1
inactive: dose: 50.0 mg/kg/injection, schedule: Q01DX009 (ip), vehicle: saline 89 % of control

NC(=Nc1ccc(N=C(N)N[N+](=O)[O-])cc1)N[N+](=O)[O-]
inactive: dose: 25.0 mg/kg/injection, schedule: Q04DX002 (ip), vehicle: Klucel (hydroxypropylcellulose) (HPC) 107 % of control | dose: 50.0 mg/kg/injection, schedule: Q04DX002 (ip), vehicle: Klucel (hydroxypropylcellulose) (HPC) 96 % of control | [1] 96 % of control

O=C1C(C(Cl)c2ccccc2)SC(c2ccccc2)N1c1ccccc1 (stereo not drawn)
inactive: dose: 100.0 mg/kg/injection, schedule: Q01DX009 (ip), vehicle: Klucel (hydroxypropylcellulose) (HPC) 95 % of control | dose: 100.0 mg/kg/injection, schedule: Q04DX003 (ip), vehicle: Klucel (hydroxypropylcellulose) (HPC) 102 % of control | dose: 200.0 mg/kg/injection, schedule: Q01DX009 (ip), vehicle: Klucel (hydroxypropylcellulose) (HPC) 95 % of control | dose: 200.0 mg/kg/injection, schedule: Q04DX003 (ip), vehicle: Klucel (hydroxypropylcellulose) (HPC) 89 % of control | dose: 400.0 mg/kg/injection, schedule: Q01DX009 (ip), vehicle: Klucel (hydroxypropylcellulose) (HPC) 95 % of control | dose: 400.0 mg/kg/injection, schedule: Q04DX003 (ip), vehicle: Klucel (hydroxypropylcellulose) (HPC) 96 % of control

OC1CC2CCC(C1)S2 (stereo not drawn)
inactive: dose: 50.0 mg/kg/injection, schedule: Q01DX001 (ip), vehicle: Klucel (hydroxypropylcellulose) (HPC) 100 % of control | [4] 105 % of control | [5] 96 % of control

COC(=O)c1ccc(N(C)Cc2cnc3nc(N)nc(SCc4ccccc4)c3n2)cc1
inactive: dose: 100.0 mg/kg/injection, schedule: Q01DX001 (ip), vehicle: saline with Tween-80 97 % of control | dose: 200.0 mg/kg/injection, schedule: Q01DX001 (ip), vehicle: saline with Tween-80 94 % of control | dose: 400.0 mg/kg/injection, schedule: Q01DX001 (ip), vehicle: saline with Tween-80 101 % of control

CNC(=N)c1ccc(NC(=N)c2ccc(NC(=O)c3ccc(C(=O)Nc4ccc(C(=N)Nc5ccc(C(=N)NC)cc5)cc4)cc3)cc2)cc1
inactive: dose: 6.25 mg/kg/injection, schedule: Q01DX Z (ip), vehicle: carboxymethylcellulose (CMC) 124 % of control | dose: 100.0 mg/kg/injection, schedule: Q01DX Z (ip), vehicle: carboxymethylcellulose (CMC) 119 % of control

C[N+](C)(C)C(=O)c1ccccc1
inactive: dose: 50.0 mg/kg/injection, schedule: Q01DX001 (ip), vehicle: saline 104 % of control | [6] 101 % of control

C=C1C(=O)OC2C1CCC1(C)CCCC(=C)C21O (stereo not drawn)
inactive: dose: 25.0 mg/kg/injection, schedule: Q04DX002 (ip), vehicle: saline 105 % of control | dose: 50.0 mg/kg/injection, schedule: Q04DX002 (ip), vehicle: saline 102 % of control | dose: 100.0 mg/kg/injection, schedule: Q04DX002 (ip), vehicle: saline 93 % of control and 97 % of control | dose: 200.0 mg/kg/injection, schedule: Q04DX002 (ip), vehicle: saline 90 % of control

C(Cc1ccccc1)=C1SCCCS1
inactive: dose: 100.0 mg/kg/injection, schedule: Q04DX003 (ip), vehicle: saline with Tween-80 99 % of control | dose: 200.0 mg/kg/injection, schedule: Q04DX003 (ip), vehicle: saline with Tween-80 96 % of control | dose: 400.0 mg/kg/injection, schedule: Q04DX003 (ip), vehicle: saline with Tween-80 96 % of control

O=c1c(-c2ccccc2)c(-c2ccccc2)n2n1C1CCC2C1 (stereo not drawn)
inactive: [6] 95 % of control | dose: 200.0 mg/kg/injection, schedule: Q01DX001 (ip), vehicle: saline 89 % of control | dose: 400.0 mg/kg/injection, schedule: Q01DX001 (ip), vehicle: saline 110 % of control

O=N[O-].O=N[O-].O=N[O-].O=N[O-].O=N[O-].O=N[O-].[Co+3].[Co].[NH2-].[NH2-].[NH2-].[NH2-].[NH2-].[NH2-]
inactive: dose: 25.0 mg/kg/injection, schedule: Q04DX002 (ip), vehicle: saline with Tween-80 102 % of control | dose: 50.0 mg/kg/injection, schedule: Q04DX002 (ip), vehicle: saline with Tween-80 115 % of control

O=c1[nH]c(CCCc2ccccc2)c(Br)c(=O)[nH]1
inactive: [1] 100 % of control | [2] 100 % of control | [3] 92 % of control

O=C(O)c1ccc[nH]1
inactive: dose: 100.0 mg/kg/injection, schedule: Q04DX002 (ip), vehicle: saline with Tween-80 102 % of control | dose: 200.0 mg/kg/injection, schedule: Q04DX002 (ip), vehicle: saline with Tween-80 87 % of control | dose: 400.0 mg/kg/injection, schedule: Q04DX002 (ip), vehicle: saline with Tween-80 98 % of control

O=C(c1ccccc1)c1ccn[nH]1
inactive: [4] 106 % of control | [5] 103 % of control | dose: 400.0 mg/kg/injection, schedule: Q01DX001 (ip), vehicle: Klucel (hydroxypropylcellulose) (HPC) 108 % of control

O=C(CC(O)(C(F)(F)F)C(F)(F)F)CC(O)(C(F)(F)F)C(F)(F)F
inactive: dose: 0.25 mg/kg/injection, schedule: Q01DX009 (ip), vehicle: other 111 % of control | dose: 0.5 mg/kg/injection, schedule: Q01DX009 (ip), vehicle: other 107 % of control and 88 % of control | dose: 1.0 mg/kg/injection, schedule: Q01DX009 (ip), vehicle: other 97 % of control | dose: 1.0 mg/kg/injection, schedule: Q04DX003 (ip), vehicle: other 94 % of control | dose: 1.25 mg/kg/injection, schedule: Q01DX009 (ip), vehicle: saline 95 % of control | dose: 2.0 mg/kg/injection, schedule: Q01DX009 (ip), vehicle: other 108 % of control | dose: 2.0 mg/kg/injection, schedule: Q04DX003 (ip), vehicle: other 87 % of control | dose: 2.5 mg/kg/injection, schedule: Q01DX009 (ip), vehicle: saline with Tween-80 102 % of control | dose: 2.5 mg/kg/injection, schedule: Q01DX009 (ip), vehicle: saline 104 % of control | dose: 3.13 mg/kg/injection, schedule: Q04DX003 (ip), vehicle: other 104 % of control | dose: 5.0 mg/kg/injection, schedule: Q01DX009 (ip), vehicle: saline with Tween-80 97 % of control | dose: 5.0 mg/kg/injection, schedule: Q01DX009 (ip), vehicle: saline 95 % of control
